Experimental data published in ChEMBL document CHEMBL4732109, “Structural modifications in the distal, regulatory region of histamine H receptor antagonists leading to the identification of a potent anti-obesity agent” (Eur J Med Chem, 2021).
Calls of active or inactive are those of the source. The calls are words filed in the database; no cut-off is given here.

Tests used:
Histamine H3 receptor [1] = target: T1, Histamine H3 receptor (Homo sapiens, UniProt Q9Y5N1); assay: Binding affinity to human H3R
Histamine H1 receptor = Histamine H1 receptor (Homo sapiens, UniProt P35367); assay: Displacement of [3H]mepyramine from human H1R expressed in Sf9 cell membranes co-expressing RGS4 measured after 60 mins by scintillation counting analysis; set-up: species or system Membrane
Histamine H3 receptor [2] = target: T1, Histamine H3 receptor; assay: Displacement of [3H]UR-PI294 from human SP-FLAG-tagged H3R expressed in HEK293T cells measured after 60 to 120 mins by liquid scintillation counting analysis; assay type: cell-based
Cytochrome P450 3A4 = Cytochrome P450 3A4 (Homo sapiens, UniProt P08684); assay: Inhibition of recombinant CYP3A4 (unknown origin) at 10 uM measured after 30 mins by luciferase reporter gene assay; assay type: ADME; details: recombinant enzyme, 0.5 h
Histamine H4 receptor = Histamine H4 receptor (Homo sapiens, UniProt Q9H3N8); assay: Binding affinity to human H4R
Rattus norvegicus [3] = assay: Anorectic activity in Wistar rat model of diet induced obesity assessed as increase in HDL level at 1 mg/kg/day, ip administered for 28 days measured on day 29 by spectrophotometric method; assay type: functional, organism-based; details: time 28.0 day
Rattus norvegicus [4] = assay: Anorectic activity in Wistar rat model of diet induced obesity assessed as reduction in total cholesterol level at 1 mg/kg/day, ip administered for 28 days measured on day 29 by spectrophotometric method; assay type: functional, organism-based; details: time 28.0 day
[5] = Effect on spontaneous locomotor activity in Wistar rat model of diet induced obesity at 1 mg/kg/day, ip administered for 27 days; assay type: ADME, organism-based; details: in vivo, 648 h, time 27 day
Rattus norvegicus [6] = assay: Anorectic activity in Wistar rat model of diet induced obesity assessed as reduction in amount of peritoneal fat at 1 mg/kg/day, ip administered for 28 days; assay type: functional, organism-based; details: time 28.0 day
Rattus norvegicus [7] = assay: Anorectic activity in Wistar rat model of diet induced obesity assessed as reduction in calorie intake at 10 mg/kg/day, ip administered for 28 days; assay type: functional, organism-based; details: time 28.0 day
Rattus norvegicus [8] = assay: Anorectic activity in Wistar rat model of diet induced obesity assessed as increase in HDL level at 10 mg/kg/day, ip administered for 28 days measured on day 29 by spectrophotometric method; assay type: functional, organism-based; details: time 29.0 day
Rattus norvegicus [9] = assay: Anorectic activity in Wistar rat model of diet induced obesity assessed as reduction in calorie intake at 1 mg/kg/day, ip administered for 28 days; assay type: functional, organism-based; details: time 28.0 day
Rattus norvegicus [10] = assay: Anorectic activity in Wistar rat model of diet induced obesity assessed as reduction in plasma glucose level at 1 mg/kg/day, ip administered for 28 days measured on day 29 by spectrophotometric method; assay type: functional, organism-based; details: time 28.0 day
[11] = Effect on spontaneous locomotor activity in Wistar rat model of diet induced obesity at 1 to 10 mg/kg/day, ip administered for 27 days; assay type: ADME, organism-based; details: in vivo, 648 h, dose 1-10 mg/kg/day, time 27 day
Rattus norvegicus [12] = assay: Anorectic activity in Wistar rat model of diet induced obesity assessed as reduction in plasma glucose level at 10 mg/kg/day, ip administered for 28 days measured on day 29 by spectrophotometric method; assay type: functional, organism-based; details: time 29.0 day
Rattus norvegicus [13] = assay: Anorectic activity in Wistar rat model of diet induced obesity assessed as reduction in triglyceride level at 1 to 10 mg/kg/day, ip administered for 28 days measured on day 29 by spectrophotometric method; assay type: functional, organism-based; details: dose 1-10 mg/kg/day, time 28.0 day
Rattus norvegicus [14] = assay: Anorectic activity in Wistar rat model of diet induced obesity assessed as reduction in total cholesterol level at 10 mg/kg/day, ip administered for 28 days measured on day 29 by spectrophotometric method; assay type: functional, organism-based; details: time 29.0 day
Rattus norvegicus [15] = assay: Anorectic activity in Wistar rat model of diet induced obesity assessed as reduction in amount of peritoneal fat at 10 mg/kg/day, ip administered for 28 days; assay type: functional, organism-based; details: time 28.0 day
Rattus norvegicus [16] = assay: Anorectic activity in Wistar rat model of diet induced obesity assessed as reduction in body weight at 1 mg/kg/day, ip administered for 28 days; assay type: functional, organism-based; details: time 28.0 day
Rattus norvegicus [17] = assay: Anorectic activity in Wistar rat model of diet induced obesity assessed as reduction in body weight at 10 mg/kg/day, ip administered for 28 days; assay type: functional, organism-based; details: time 28.0 day

T1 sequence (Q9Y5N1 whole entry): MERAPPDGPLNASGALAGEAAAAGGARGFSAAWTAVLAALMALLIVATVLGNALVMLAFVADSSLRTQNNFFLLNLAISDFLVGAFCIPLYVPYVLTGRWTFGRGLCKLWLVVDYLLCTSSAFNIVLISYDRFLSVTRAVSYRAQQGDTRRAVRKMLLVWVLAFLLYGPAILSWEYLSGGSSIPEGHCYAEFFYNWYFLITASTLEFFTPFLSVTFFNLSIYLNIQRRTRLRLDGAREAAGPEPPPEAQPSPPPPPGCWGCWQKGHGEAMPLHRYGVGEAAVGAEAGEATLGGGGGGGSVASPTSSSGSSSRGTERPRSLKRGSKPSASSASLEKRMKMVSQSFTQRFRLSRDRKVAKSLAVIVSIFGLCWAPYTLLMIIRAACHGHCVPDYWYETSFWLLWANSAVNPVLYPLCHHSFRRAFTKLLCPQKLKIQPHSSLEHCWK
Sequence of Cytochrome P450 3A4 (P08684 whole entry): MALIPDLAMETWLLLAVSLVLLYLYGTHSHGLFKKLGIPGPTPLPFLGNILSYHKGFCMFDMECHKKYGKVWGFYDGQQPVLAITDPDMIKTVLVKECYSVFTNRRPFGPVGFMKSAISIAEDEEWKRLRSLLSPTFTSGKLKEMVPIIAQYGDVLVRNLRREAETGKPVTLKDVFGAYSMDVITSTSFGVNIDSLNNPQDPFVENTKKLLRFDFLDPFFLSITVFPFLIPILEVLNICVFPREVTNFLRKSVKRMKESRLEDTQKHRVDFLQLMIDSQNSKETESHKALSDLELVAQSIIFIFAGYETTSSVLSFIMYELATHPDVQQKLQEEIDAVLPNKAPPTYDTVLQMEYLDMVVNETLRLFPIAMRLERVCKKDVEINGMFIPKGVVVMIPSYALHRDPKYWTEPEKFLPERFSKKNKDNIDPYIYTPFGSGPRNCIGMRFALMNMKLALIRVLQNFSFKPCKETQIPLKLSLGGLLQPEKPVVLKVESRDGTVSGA
Sequence of Histamine H1 receptor (P35367 whole entry): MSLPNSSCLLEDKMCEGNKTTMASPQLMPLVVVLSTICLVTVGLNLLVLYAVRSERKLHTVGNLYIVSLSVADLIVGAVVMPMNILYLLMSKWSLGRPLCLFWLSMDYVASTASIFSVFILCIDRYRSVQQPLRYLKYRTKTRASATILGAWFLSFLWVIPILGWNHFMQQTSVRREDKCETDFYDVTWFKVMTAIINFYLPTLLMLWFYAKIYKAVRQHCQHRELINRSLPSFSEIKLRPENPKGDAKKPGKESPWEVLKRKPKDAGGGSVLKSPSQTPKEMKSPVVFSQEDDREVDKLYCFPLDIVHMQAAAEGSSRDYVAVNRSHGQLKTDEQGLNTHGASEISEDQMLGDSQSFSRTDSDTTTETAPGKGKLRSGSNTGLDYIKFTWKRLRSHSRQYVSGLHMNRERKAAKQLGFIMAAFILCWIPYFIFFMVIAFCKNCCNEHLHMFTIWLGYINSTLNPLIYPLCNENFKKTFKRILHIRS

Ki (Histamine H1 receptor) [µM] | Ki (Histamine H3 receptor [2]) [nM] | inhibition (INH) (Cytochrome P450 3A4) | SMILES | further results
– | – | – | CN(C)[C@@H]1CCN(CCCOc2ccc(-c3ccc(C#N)cc3)cc2F)C1 | Ki (Histamine H3 receptor [1]): 3.98 nM
4.24 | 17.6 | Active | c1ccc(Cc2ccc(OCCCN3CCN(c4ccncc4)CC3)cc2)cc1 | –
4.57 | 20.3 | Active | c1ccc(Oc2ccc(OCCCN3CCN(c4ccncc4)CC3)cc2)cc1 | –
4.22 | 8.43 | Active | c1ccc(Nc2ccc(OCCCN3CCN(c4ccncc4)CC3)cc2)cc1 | –
– | – | Active | O=C(c1ccc(OCCCc2cnc[nH]2)cc1)C1CC1 [CIPROXIFAN] | –
3.69 | 60.7 | Active | Fc1ccc(-c2ccc(OCCCN3CCN(c4ccncc4)CC3)cc2)cc1 | –
– | – | – | Clc1ccc(CCCOCCCN2CCCCC2)cc1 [PITOLISANT] | Ki (Histamine H4 receptor): > 100 µM
– | – | – | Cc1c(C(=O)NN2CCCCC2)nn(-c2ccc(Cl)cc2Cl)c1-c1ccc(Cl)cc1 [RIMONABANT] | Activity (Rattus norvegicus [3]): Active; Activity (Rattus norvegicus [4]): Active; Activity [5]: Non-Toxic; Activity (Rattus norvegicus [6]): Active
1.99 | 109 | Active | Clc1cccc(-c2ccc(OCCCN3CCN(c4ccncc4)CC3)cc2)c1 | –
4.09 | 140 | Active | Clc1ccc(-c2ccc(OCCCN3CCN(c4ccncc4)CC3)cc2)cc1 | –
– | – | – | CN(C)[C@@H]1CCN(CCCOc2ccc(-c3ccc(C#N)cc3)cc2)C1 | Ki (Histamine H3 receptor [1]): 2 nM
7.42 | 67.2 | Active | c1ccc2cc(OCCCN3CCN(c4ccncc4)CC3)ccc2c1 | –

SMILES | Ki (Histamine H1 receptor) [µM] | Ki (Histamine H3 receptor [2]) [nM] | inhibition (INH) (Cytochrome P450 3A4) | further results
O=C(c1ccc(F)cc1)c1ccc(OCCCN2CCN(c3ccncc3)CC2)cc1 | > 10 | 5.84 | Active | –
O=C(c1ccc(OCCCN2CCC(c3ccncc3)CC2)cc1)C1CC1 | > 10 | 7.7 | Active | –
O=C(c1ccc(Cl)cc1)c1ccc(OCCCN2CCN(c3ccncc3)CC2)cc1 | 6.86 | 23 | Active | –
O=C(c1ccc(OCCCN2CCN(c3ccncc3)CC2)cc1)C1CC1 | > 10 | 3.17 | Active | –
N#Cc1ccc(-c2ccc(OCCCN3CCN(c4ccncc4)CC3)cc2)cc1 | 2.9 | 7.86 | Active | Activity (Rattus norvegicus [3]): Active; Activity (Rattus norvegicus [7]): Active; Activity (Rattus norvegicus [8]): Active; Activity (Rattus norvegicus [9]): Active; Activity (Rattus norvegicus [10]): inactive; Activity [11]: Non-Toxic; Activity (Rattus norvegicus [6]): Active; Activity (Rattus norvegicus [12]): Active; Activity (Rattus norvegicus [13]): Active; Activity (Rattus norvegicus [14]): Active; Activity (Rattus norvegicus [15]): Active; Activity (Rattus norvegicus [16]): Active; Activity (Rattus norvegicus [17]): Active
